Data from patent US8247211B2, “Glycopeptide antibiotics” (American Cyanamid Company, priority 2001, dated 2012).

Key:
Escherichia coli [1] = experiment: In vitro antibacterial evaluation: minimum inhibitory concentration (MIC), broth dilution method; format: cell-based
[2] = Anatomic pathology (heart and kidney histopathology) in mice; format: in vivo, CD-1 mice; settings: 20 mg/kg intravenously daily for 9 days, microscopic histopathology on day 10
How it was run: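 Juvenile CD-1 mice (20 days old; 5 vehicle, 5 treated) received glycopeptide antibiotic 20 mg/kg i.v. daily for 9 days. Necropsied tissues formalin-fixed, paraffin-embedded, H&E stained and examined microscopically; findings graded slight to severe versus controls.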

[3] = tested on: Staphylococcus aureus-SMITH (GC 4543); experiment: Acute lethal infection in mice (ED50); format: in vivo; settings: female CD-1 mice, intraperitoneal challenge, intravenous dose 30 min. after infection, 7 day survival ratios
How it was run: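 Lethal systemic infection model: female CD-1 mice, 20 ± 1-2 g, intraperitoneal challenge. Single intravenous treatment 30 min after infection; 7-day survival, pooled from 3 tests, gives ED50.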

Escherichia coli [4] = experiment: In vitro antibacterial evaluation: minimum inhibitory concentration (MIC), broth dilution method; format: cell-based; remark: listed apart in the source
How it was run: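 MIC read as lowest drug level preventing visible growth. Organisms at 5×10^5 CFU/mL were exposed to a 64-0.06 μg/mL dilution series in Muller-Hinton II […] following NCCLS broth dilution standard M7-A2.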

Staphylococcus sp. = experiment: as above; format: cell-based; settings: 18 hours at 35° C.
How it was run: (§1)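 An MIC is reported for each organism as the least concentration giving inhibition, using broth dilution over 64-0.06 μg/mL with a 5×10^5 CFU/mL inoculum.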

Enterococcus sp. = experiment: as above; format: cell-based
How it was run: as §1

Streptococcus sp. = experiment: as above; format: cell-based; settings: 18 hours at 35° C.
How it was run: as §1

[5] = Staphylococcus aureus (ATCC 29213)
[6] = Staphylococcus aureus (GC 1131)
[7] = Staphylococcus aureus (GC 3051)
[8] = Staphylococcus aureus (GC 3053)
[9] = Staphylococcus aureus (GC 4541)
[10] = Staphylococcus aureus (GC 4542)
[11] = Staphylococcus aureus (GC 4544)
[12] = Staphylococcus aureus (GC 4545)
[13] = Enterococcus faecalis (ATCC 29212)
[14] = Enterococcus faecalis (GC 4553)
[15] = Enterococcus faecalis (GC 4554)
[16] = Enterococcus faecalis (GC 6189)

CC(C)CC(=O)OC1C(OC2C(CO)OC(Oc3ccc(CC4NC(=O)C(C(C)c5ccccc5)NC(=O)CNC(=O)C(CO)NC(=O)C(CC5CNC(=N)N5C5OC(CO)C(O)C(O)C5O)NC(=O)C(CC5CNC(=N)N5)NC4=O)cc3)C(O)C2O)OC(CO)C(O)C1O (stereo not shown) [Example 277b]
0: Anatomical Pathology (Day 10), Heart [2]
32 µg/mL: MIC Escherichia coli (GC 4560) (Escherichia coli [4])
>8: median effective dose (ED50), Staphylococcus aureus-SMITH (GC 4543) [3]
>64 µg/mL: MIC Escherichia coli (ATCC 25922) (Escherichia coli [1]) | MIC Escherichia coli (GC 4559) (Escherichia coli [4]) | MIC Coagulase Negative Staphylococcus (GC 4547) (Staphylococcus sp.) | MIC Coagulase Negative Staphylococcus (GC 4547) (Staphylococcus sp.; broth dilution) | MIC Coagulase Negative Staphylococcus (GC 4548) (Staphylococcus sp.) | MIC Coagulase Negative Staphylococcus (GC 4548) (Staphylococcus sp.; broth dilution) | MIC Coagulase Negative Staphylococcus (GC 4549) (Staphylococcus sp.) | MIC Coagulase Negative Staphylococcus (GC 4549) (Staphylococcus sp.; broth dilution) | MIC Coagulase Negative Staphylococcus (GC 4551) (Staphylococcus sp.) | MIC Coagulase Negative Staphylococcus (GC 4551) (Staphylococcus sp.; broth dilution) | MIC Coagulase Negative Staphylococcus (GC 6257) (Staphylococcus sp.) | MIC Coagulase Negative Staphylococcus (GC 6257) (Staphylococcus sp.; broth dilution) | MIC Staphylococcus aureus (ATCC 29213) (Staphylococcus sp.; [5]) | MIC Staphylococcus aureus (ATCC 29213) (Staphylococcus sp.; Staphylococcus aureus (ATCC 29213), broth dilution) | MIC Staphylococcus aureus (GC 1131) (Staphylococcus sp.; [6]) | MIC Staphylococcus aureus (GC 1131) (Staphylococcus sp.; Staphylococcus aureus (GC 1131), broth dilution) | MIC Staphylococcus aureus (GC 3051) (Staphylococcus sp.; [7]) | MIC Staphylococcus aureus (GC 3051) (Staphylococcus sp.; Staphylococcus aureus (GC 3051), broth dilution) | MIC Staphylococcus aureus (GC 3053) (Staphylococcus sp.; [8]) | MIC Staphylococcus aureus (GC 3053) (Staphylococcus sp.; Staphylococcus aureus (GC 3053), broth dilution) | MIC Staphylococcus aureus (GC 4541) (Staphylococcus sp.; [9]) | MIC Staphylococcus aureus (GC 4541) (Staphylococcus sp.; Staphylococcus aureus (GC 4541), broth dilution) | MIC Staphylococcus aureus (GC 4542) (Staphylococcus sp.; [10]) | MIC Staphylococcus aureus (GC 4542) (Staphylococcus sp.; Staphylococcus aureus (GC 4542), broth dilution) | MIC Staphylococcus aureus (GC 4544) (Staphylococcus sp.; [11]) | MIC Staphylococcus aureus (GC 4544) (Staphylococcus sp.; Staphylococcus aureus (GC 4544), broth dilution) | MIC Staphylococcus aureus (GC 4545) (Staphylococcus sp.; [12]) | MIC Staphylococcus aureus (GC 4545) (Staphylococcus sp.; Staphylococcus aureus (GC 4545), broth dilution) | MIC Staphylococcus aureus-SMITH (GC 4543) (Staphylococcus sp.) | MIC Staphylococcus aureus-SMITH (GC 4543) (Staphylococcus sp.; broth dilution) | MIC Staphylococcus haemolyticus (GC 4546) (Staphylococcus sp.) | MIC Staphylococcus haemolyticus (GC 4546) (Staphylococcus sp.; broth dilution) | MIC Enterococcus avium (GC 4558) (Enterococcus sp.; Enterococcus avium (GC 4558)) | MIC Enterococcus faecalis (ATCC 29212) (Enterococcus sp.; [13]) | MIC Enterococcus faecalis (GC 4553) (Enterococcus sp.; [14]) | MIC Enterococcus faecalis (GC 4554) (Enterococcus sp.; [15]) | MIC Enterococcus faecalis (GC 6189) (Enterococcus sp.; [16]) | MIC Enterococcus faecium (GC 2243) (Enterococcus sp.; Enterococcus faecium (GC 2243)) | MIC Enterococcus faecium (GC 4556) (Enterococcus sp.; Enterococcus faecium (GC 4556)) | MIC Enterococcus faecium (GC 4557) (Enterococcus sp.; Enterococcus faecium (GC 4557))
+: Anatomical Pathology (Day 10), Kidney [2]

β-O-[(N-Methyl-2-methylpropylamino)carbonyl]-cyclo[glycyl-β-methylphenylalanyl-O-(4-O-hexopyranosylhexopyranosyl)tyrosyl-3-(2-iminoimidazolidin-4-yl)seryl-3-(3-hexopyranosyl-2-iminoimidazolidin-4-yl)serylseryl] [Example 255a]
0.5 µg/mL: MIC Escherichia coli (GC 4560) (Escherichia coli [4]) | MIC Staphylococcus aureus (GC 3051) (Staphylococcus sp.; [7]) | MIC Staphylococcus aureus (GC 3053) (Staphylococcus sp.; [8]) | MIC Staphylococcus aureus (GC 3051) (Staphylococcus sp.; broth dilution, strain GC 3051) | MIC Staphylococcus aureus (GC 3053) (Staphylococcus sp.; broth dilution, strain GC 3053)
>0.5 µg/mL: MIC Escherichia coli (ATCC 25922) (Escherichia coli [1]) | MIC Escherichia coli (GC 4559) (Escherichia coli [4]) | MIC Staphylococcus aureus (ATCC 29213) (Staphylococcus sp.; [5]) | MIC Staphylococcus aureus (GC 1131) (Staphylococcus sp.; [6]) | MIC Staphylococcus aureus (GC 4541) (Staphylococcus sp.; [9]) | MIC Staphylococcus aureus (GC 4542) (Staphylococcus sp.; [10]) | MIC Staphylococcus aureus (GC 4544) (Staphylococcus sp.; [11]) | MIC Staphylococcus aureus (GC 4545) (Staphylococcus sp.; [12]) | MIC Staphylococcus aureus-SMITH (GC 4543) (Staphylococcus sp.) | MIC Staphylococcus aureus (ATCC 29213) (Staphylococcus sp.; broth dilution, strain ATCC 29213) | MIC Staphylococcus aureus (GC 1131) (Staphylococcus sp.; broth dilution, strain GC 1131) | MIC Staphylococcus aureus (GC 4541) (Staphylococcus sp.; broth dilution, strain GC 4541) | MIC Staphylococcus aureus (GC 4542) (Staphylococcus sp.; broth dilution, strain GC 4542) | MIC Staphylococcus aureus (GC 4544) (Staphylococcus sp.; broth dilution, strain GC 4544) | MIC Staphylococcus aureus (GC 4545) (Staphylococcus sp.; broth dilution, strain GC 4545) | MIC Enterococcus avium (GC 4558) (Enterococcus sp.; Enterococcus avium (GC 4558)) | MIC Enterococcus faecalis (ATCC 29212) (Enterococcus sp.; [13]) | MIC Enterococcus faecalis (GC 2242) (Enterococcus sp.; Enterococcus faecalis (GC 2242), 18 hours at 35° C.) | MIC Enterococcus faecalis (GC 2691) (Enterococcus sp.; Enterococcus faecalis (GC 2691), 18 hours at 35° C.) | MIC Enterococcus faecalis (GC 3059) (Enterococcus sp.; Enterococcus faecalis (GC 3059), 18 hours at 35° C.) | MIC Enterococcus faecalis (GC 4552) (Enterococcus sp.; Enterococcus faecalis (GC 4552), 18 hours at 35° C.) | MIC Enterococcus faecalis (GC 4553) (Enterococcus sp.; [14]) | MIC Enterococcus faecalis (GC 4554) (Enterococcus sp.; [15]) | MIC Enterococcus faecalis (GC 6189) (Enterococcus sp.; [16]) | MIC Enterococcus faecalis (ATCC 29212) (Enterococcus sp.; broth dilution, 18 hours at 35° C., strain ATCC 29212) | MIC Enterococcus faecalis (GC 2242) (Enterococcus sp.; broth dilution, 18 hours at 35° C., strain GC 2242) | MIC Enterococcus faecalis (GC 2691) (Enterococcus sp.; broth dilution, 18 hours at 35° C., strain GC 2691) | MIC Enterococcus faecalis (GC 3059) (Enterococcus sp.; broth dilution, 18 hours at 35° C., strain GC 3059) | MIC Enterococcus faecalis (GC 4552) (Enterococcus sp.; broth dilution, 18 hours at 35° C., strain GC 4552) | MIC Enterococcus faecalis (GC 4553) (Enterococcus sp.; broth dilution, 18 hours at 35° C., strain GC 4553) | MIC Enterococcus faecalis (GC 4554) (Enterococcus sp.; broth dilution, 18 hours at 35° C., strain GC 4554) | MIC Enterococcus avium (GC 4558) (Enterococcus sp.; broth dilution, 18 hours at 35° C., strain GC 4558) | MIC Enterococcus faecalis (GC 6189) (Enterococcus sp.; broth dilution, 18 hours at 35° C., strain GC 6189)
>64 µg/mL: MIC Coagulase Negative Staphylococcus (GC 4548) (Staphylococcus sp.) | MIC Coagulase Negative Staphylococcus (GC 4551) (Staphylococcus sp.) | MIC Enterococcus faecium (GC 2243) (Enterococcus sp.; Enterococcus faecium (GC 2243)) | MIC Enterococcus faecium (GC 4556) (Enterococcus sp.; Enterococcus faecium (GC 4556)) | MIC Enterococcus faecium (GC 2243) (Enterococcus sp.; broth dilution, 18 hours at 35° C., strain GC 2243) | MIC Enterococcus faecium (GC 4556) (Enterococcus sp.; broth dilution, 18 hours at 35° C., strain GC 4556)
32 µg/mL: MIC Streptococcus pneumoniae (GC 4565) (Streptococcus sp.; Streptococcus pneumoniae (GC 4565)) | MIC Streptococcus pyogenes (GC 4563) (Streptococcus sp.; Streptococcus pyogenes (GC 4563)) | MIC Streptococcus pyogenes (GC 4563) (Streptococcus sp.; broth dilution, strain GC 4563) | MIC Streptococcus pneumoniae (GC 4565) (Streptococcus sp.; broth dilution, strain GC 4565) | MIC Enterococcus faecium (GC 4557) (Enterococcus sp.; Enterococcus faecium (GC 4557)) | MIC Enterococcus faecium (GC 4557) (Enterococcus sp.; broth dilution, 18 hours at 35° C., strain GC 4557)
64 µg/mL: MIC Streptococcus agalactiae (GC 4564) (Streptococcus sp.; Streptococcus agalactiae (GC 4564)) | MIC Streptococcus agalactiae (GC 4564) (Streptococcus sp.; broth dilution, strain GC 4564) | MIC Coagulase Negative Staphylococcus (GC 4547) (Staphylococcus sp.) | MIC Coagulase Negative Staphylococcus (GC 4549) (Staphylococcus sp.) | MIC Coagulase Negative Staphylococcus (GC 6257) (Staphylococcus sp.) | MIC Staphylococcus haemolyticus (GC 4546) (Staphylococcus sp.)
